# Like-named read-outs stand apart in the source and are kept apart here.
# Molecular target: 11β-HSD1 (Homo sapiens, UniProt P28845)
# Assay: biochemical
# Settings: for IC50: IC50 Range, Biological Test Example 1, microsomes from CHO cells overexpressing human 11β-HSD1
# [1] = read-out: Average % inhibition at 100 nM, Biological Test Example 1, 100 nM
# 11β-HSD1, sequence (P28845 whole entry): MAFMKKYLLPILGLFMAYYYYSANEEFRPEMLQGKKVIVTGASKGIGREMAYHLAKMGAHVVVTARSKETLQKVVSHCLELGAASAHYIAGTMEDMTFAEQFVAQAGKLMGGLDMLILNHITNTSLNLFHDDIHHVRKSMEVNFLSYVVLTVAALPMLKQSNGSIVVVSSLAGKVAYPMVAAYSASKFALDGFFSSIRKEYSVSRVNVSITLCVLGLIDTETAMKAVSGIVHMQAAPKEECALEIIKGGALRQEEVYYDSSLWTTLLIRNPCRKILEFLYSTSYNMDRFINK
Compound,IC50 [nM],inhibition at 0.1 µM [1] [%],inhibition at 0.1 µM (read-out: Average % inhibition at 100 nM) [%]
"C[C@@H](c1cccc(Br)c1)N1CC[C@](CCCO)(c2ccc(F)cc2)OC1=O [EXAMPLE 354, (R)-3-((S)-1-(3-bromophenyl)ethyl)-6-(4-fluorophenyl)-6-(3-hydroxypropyl)-1,3-oxazinan-2-one]",< 100,95.2,–
"CC(O)C[C@]1(c2ccc(F)cc2)CCN([C@@H](C)c2cccc(Br)c2)C(=O)O1 (stereo partly drawn) [EXAMPLE 355, (6S)-3-((S)-1-(3-bromophenyl)ethyl)-6-(4-fluorophenyl)-6-(2-hydroxypropyl)-1,3-oxazinan-2-one]",< 100,–,95.5
"C[C@@H](c1cccc(Br)c1)N1CC[C@](CC(C)(C)O)(c2ccc(F)cc2)OC1=O [EXAMPLE 356, (S)-3-((S)-1-(3-bromophenyl)ethyl)-6-(4-fluorophenyl)-6-(2-hydroxy-2-methylpropyl)-1,3-oxazinan-2-one]",< 100,92,–
"C[C@@H](c1cccc(Br)c1)N1CC[C@](CCC(C)(C)O)(c2ccc(F)cc2)OC1=O [EXAMPLE 357, (R)-3-((S)-1-(3-bromophenyl)ethyl)-6-(4-fluorophenyl)-6-(3-hydroxy-3-methylbutyl)-1,3-oxazinan-2-one]",< 100,60.7,–
"C[C@@H](c1cccc(Br)c1)N1CC[C@](CCC(N)=O)(c2ccc(F)cc2)OC1=O [EXAMPLE 358, 3-((R)-3-((S)-1-(3-bromophenyl)ethyl)-6-(4-fluorophenyl)-2-oxo-1,3-oxazinan-6-yl)propanamide]",< 100,84,–
"C[C@@H](c1cccc(Br)c1)N1CC[C@](CCCNS(C)(=O)=O)(c2ccc(F)cc2)OC1=O [EXAMPLE 359, N-(3-((R)-3-((S)-1-(3-bromophenyl)ethyl)-6-(4-fluorophenyl)-2-oxo-1,3-oxazinan-6-yl)propyl)methanesulfonamide]",< 100,67.5,–
"C=CC[C@]1(c2ccc(F)cc2)CCN([C@@H](C)c2cccc(C(=O)OC)c2)C(=O)O1 [EXAMPLE 362, Methyl 3-((S)-1-((R)-6-allyl-6-(4-fluorophenyl)-2-oxo-1,3-oxazinan-3-yl)ethyl)benzoate]",< 100,93.4,–
"C[C@@H](c1ccc(Br)cc1)N1CC[C@](CCCO)(c2ccc(F)cc2F)OC1=O [EXAMPLE 366, (R)-3-((S)-1-(4-bromophenyl)ethyl)-6-(2,4-difluorophenyl)-6-(3-hydroxypropyl)-1,3-oxazinan-2-one]",< 100,95.1,–
"CC[C@@H](c1ccc(Br)cc1)N1CC[C@](CCC(N)=O)(c2ccc(F)cc2)OC1=O [EXAMPLE 368, 3-((R)-3-((S)-1-(4-bromophenyl)propyl)-6-(4-fluorophenyl)-2-oxo-1,3-oxazinan-6-yl)propanamide]",< 100,96.9,–
"C[C@@H](c1ccc(Br)cc1)N1CC[C@](CCC(C)(C)O)(c2ccc(F)cc2)OC1=O [EXAMPLE 373, (R)-3-((S)-1-(4-bromophenyl)ethyl)-6-(4-fluorophenyl)-6-(3-hydroxy-3-methylbutyl)-1,3-oxazinan-2-one]",< 100,89.1,–
"C[C@@H](c1ccc(Br)cc1)N1CC[C@](CCN2CC[C@H](F)C2)(c2ccc(F)cc2)OC1=O [EXAMPLE 377, (R)-3-((S)-1-(4-bromophenyl)ethyl)-6-(4-fluorophenyl)-6-(2-((S)-3-fluoropyrrolidin-1-yl)ethyl)-1,3-oxazinan-2-one]",< 100,72,–
"C[C@@H](c1ccc(Br)cc1)N1CC[C@](CCN2CC[C@@H](F)C2)(c2ccc(F)cc2)OC1=O [EXAMPLE 378, (R)-3-((S)-1-(4-bromophenyl)ethyl)-6-(4-fluorophenyl)-6-(2-((R)-3-fluoropyrrolidin-1-yl)ethyl)-1,3-oxazinan-2-one]",< 100,70,–
"C[C@@H](c1ccc(Br)cc1)N1CC[C@](CCN2CCNC(=O)C2)(c2ccc(F)cc2)OC1=O [EXAMPLE 379, (R)-3-((S)-1-(4-bromophenyl)ethyl)-6-(4-fluorophenyl)-6-(2-(3-oxopiperazin-1-yl)ethyl)-1,3-oxazinan-2-one]",< 100,57.7,–
"C[C@@H](c1ccc(Cl)cc1)N1CC[C@](CCO)(c2ccc(F)cc2)OC1=O [EXAMPLE 380, (S)-3-((S)-1-(4-chlorophenyl)ethyl)-6-(4-fluorophenyl)-6-(2-hydroxyethyl)-1,3-oxazinan-2-one]",< 100,97.2,–
"NC(=O)c1ccc(-c2ccccc2CN2CCC(CCCO)(c3ccc(F)cc3)OC2=O)cc1 (centres unmarked) [EXAMPLE 386, 2′((6-(4-fluorophenyl)-6-(3-hydroxypropyl)-2-oxo-1,3-oxazinan-3-yl)methyl)biphenyl-4-carboxamide]",< 100,52.5,–
"C[C@@H](c1ccc(C(F)(F)F)cc1)N1CC[C@](CCO)(c2ccc(F)cc2)OC1=O [EXAMPLE 387, (S)-6-(4-fluorophenyl)-6-(2-hydroxyethyl)-3-((S)-1-(4-(trifluoromethyl)phenyl)ethyl)-1,3-oxazinan-2-one]",< 100,95.8,–
"C[C@@H](c1ccc(C(F)(F)F)cc1)N1CC[C@](CCCNS(C)(=O)=O)(c2ccc(F)cc2)OC1=O [EXAMPLE 389, N-(3-((R)-6-(4-fluorophenyl)-2-oxo-3-((S)-1-(4-(trifluoromethyl)phenyl)ethyl)-1,3-oxazinan-6-yl)propyl)methanesulfonamide]",< 100,96.4,–
"C[C@@H](c1ccc(Br)cc1)N1CC[C@](CCCO)(c2ccccc2)OC1=O [EXAMPLE 392, (R)-3-((S)-1-(4-bromophenyl)ethyl)-6-(3-hydroxypropyl)-6-phenyl-1,3-oxazinan-2-one]",< 100,–,–

# More lines, main results first:
IC50 [nM],inhibition at 0.1 µM [1] [%],Compound,inhibition at 0.1 µM (read-out: Average % inhibition at 100 nM) [%]
< 100,97,"C[C@@H](c1cccc(Cl)c1)N1CC[C@](CCCO)(c2ccc(F)cc2)OC1=O [EXAMPLE 360, (R)-3-((S)-1-(3-chlorophenyl)ethyl)-6-(4-fluorophenyl)-6-(3-hydroxypropyl)-1,3-oxazinan-2-one]",–
< 100,67.4,"C[C@@H](c1cccc(C#N)c1)N1CC[C@](CCCOC(=O)C(F)(F)F)(c2ccc(F)cc2)OC1=O [EXAMPLE 361, 3-((R)-3-((S)-1-(3-cyanophenyl)ethyl)-6-(4-fluorophenyl)-2-oxo-1,3-oxazinan-6-yl)propyl 2,2,2-trifluoroacetate]",–
< 100,74.5,"C[C@@H](c1cccc(CO)c1)N1CC[C@](CCCO)(c2ccc(F)cc2)OC1=O [EXAMPLE 363, (R)-6-(4-fluorophenyl)-3-((S)-1-(3-(hydroxymethyl)phenyl)ethyl)-6-(3-hydroxypropyl)-1,3-oxazinan-2-one]",–
< 100,66.3,"C=CC[C@]1(c2ccc(F)cc2)CCN([C@@H](C)c2cccc(C(C)(C)O)c2)C(=O)O1 [EXAMPLE 364, (R)-6-allyl-6-(4-fluorophenyl)-3-((S)-1-(3-(2-hydroxypropan-2-yl)phenyl)ethyl)-1,3-oxazinan-2-one]",–
< 100,44.8,"Cc1ccc([C@H](C)N2CC[C@](CCCO)(c3ccc(F)cc3)OC2=O)cn1 [EXAMPLE 367, (R)-6-(4-fluorophenyl)-6-(3-hydroxypropyl)-3-((S)-1-(6-methylpyridin-3-yl)ethyl)-1,3-oxazinan-2-one]",–
< 100,52.2,"C[C@@H](c1ccc(Br)cc1)N1CC[C@](CCN2CCC2)(c2ccc(F)cc2)OC1=O [EXAMPLE 374, (R)-6-(2-(azetidin-1-yl)ethyl)-3-((S)-1-(4-bromophenyl)ethyl)-6-(4-fluorophenyl)-1,3-oxazinan-2-one]",–
< 100,70.9,"C[C@@H](c1ccc(Br)cc1)N1CC[C@](CCNCCF)(c2ccc(F)cc2)OC1=O [EXAMPLE 375, (R)-3-((S)-1-(4-bromophenyl)ethyl)-6-(2-(2-fluoroethylamino)ethyl)-6-(4-fluorophenyl)-1,3-oxazinan-2-one]",–
< 100,50.3,"C[C@@H](c1ccc(Br)cc1)N1CC[C@](CCN2CCCC2)(c2ccc(F)cc2)OC1=O [EXAMPLE 376, (R)-3-((S)-1-(4-bromophenyl)ethyl)-6-(4-fluorophenyl)-6-(2-(pyrrolidin-1-yl)ethyl)-1,3-oxazinan-2-one]",–
< 100,97.2,"C[C@@H](c1ccc(Cl)cc1)N1CC[C@](CC(C)(C)O)(c2ccc(F)cc2)OC1=O [EXAMPLE 381, (S)-3-((S)-1-(4-chlorophenyl)ethyl)-6-(4-fluorophenyl)-6-(2-hydroxy-2-methylpropyl)-1,3-oxazinan-2-one]",–
< 100,81.3,"C[C@@H](c1ccc(Cl)cc1)N1CC[C@](CCC(C)(C)O)(c2ccc(F)cc2)OC1=O [EXAMPLE 382, (R)-3-((S)-1-(4-chlorophenyl)ethyl)-6-(4-fluorophenyl)-6-(3-hydroxy-3-methylbutyl)-1,3-oxazinan-2-one]",–
< 100,89.2,"C[C@@H](c1ccc(Cl)cc1)N1CC[C@](CCCNS(C)(=O)=O)(c2ccc(F)cc2)OC1=O [EXAMPLE 384, N-(3-((R)-3-((S)-1-(4-chlorophenyl)ethyl)-6-(4-fluorophenyl)-2-oxo-1,3-oxazinan-6-yl)propyl)methanesulfonamide]",–
< 100,96.3,"C[C@@H](c1ccc(C(F)(F)F)cc1)N1CC[C@](CC(C)(C)O)(c2ccc(F)cc2)OC1=O [EXAMPLE 390, (S)-6-(4-fluorophenyl)-6-(2-hydroxy-2-methylpropyl)-3-((S)-1-(4-(trifluoromethyl)phenyl)ethyl)-1,3-oxazinan-2-one]",–
< 100,99.1,"C[C@@H](c1ccc(Br)cc1)N1CC[C@](CCCNS(C)(=O)=O)(c2ccccc2)OC1=O [EXAMPLE 394, N-(3-((R)-3-((S)-1-(4-bromophenyl)ethyl)-2-oxo-6-phenyl-1,3-oxazinan-6-yl)propyl)methanesulfonamide]",–
< 100,–,"C[C@@H](c1ccc(Br)cc1)N1CC[C@](CCO)(c2ccccc2)OC1=O [EXAMPLE 396, (S)-3-((S)-1-(4-bromophenyl)ethyl)-6-(2-hydroxyethyl)-6-phenyl-1,3-oxazinan-2-one]",–
